Publication PMC6979384, “Characterization of the plant homeodomain (PHD) reader family for their histone tail interactions” (Epigenetics & Chromatin, 2020)
Where no end group is shown, it is not given here. [ ]: non-standard residue; d: D form. Lys(Me2) = CN(C)CCCC[C@H](N)C(=O)O

Key:
Test in all cases: Histone peptide microarray
Format in all cases: binding, human
CHD4 (PPCC) = test system: CHD4 (PPCC)
Method in brief: (§1)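 Each reader, produced as a GST fusion and purified, was tested at 0.5 μM on synthetic histone peptides (293 in total) carrying single or combinatorial marks. Intensities averaged over four replicates.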

RAG2 = settings: GST-tagged RAG2
Method in brief: as §1

CHD5 (PPCC) = test system: CHD5 (PPCC)
Method in brief: as §1

PHF8 = settings: GST-tagged PHF8
Method in brief: as §1

CHD5 (PCC) = test system: CHD5 (PCC)
Method in brief: as §1

MLL5 = settings: GST-tagged MLL5
Method in brief: as §1

BPTF (PB) = test system: BPTF (PB)
Method in brief: as §1

PHF21A = settings: GST-tagged PHF21A
Method in brief: as §1

BAZ2B = settings: GST-tagged BAZ2B
Method in brief: as §1

SP140L = settings: GST-tagged SP140L
Method in brief: as §1

ING5 = settings: GST-tagged ING5
Method in brief: as §1

KDM5B (3) = settings: GST-tagged KDM5B (3)
Method in brief: as §1

KDM4C (TTP) = test system: KDM4C (TTP)
Method in brief: as §1

KDM5B (1) = settings: GST-tagged KDM5B (1)
Method in brief: as §1

MORC3 (CW) = test system: MORC3 (CW)
Method in brief: as §1

TRIM66 (PB) = test system: TRIM66 (PB)
Method in brief: as §1

TAF3 = settings: GST-tagged TAF3
Method in brief: as §1

PHF2 = settings: GST-tagged PHF2
Method in brief: as §1

DPF2 (PPC2W2) = test system: DPF2 (PPC2W2)
Method in brief: as §1

PHF23 = settings: GST-tagged PHF23
Method in brief: as §1

AIRE (PP) = settings: GST-tagged AIRE (PP)
Method in brief: as §1

ING3 = settings: GST-tagged ING3
Method in brief: as §1

KDM5A (3) = settings: GST-tagged KDM5A (3)
Method in brief: as §1

ING1 = settings: GST-tagged ING1
Method in brief: as §1

ING4 = settings: GST-tagged ING4
Method in brief: as §1

DIDO1 = settings: GST-tagged DIDO1
Method in brief: as §1

PHF13 = settings: GST-tagged PHF13
Method in brief: as §1

KDM7A = settings: GST-tagged KDM7A
Method in brief: as §1

PHRF1 (RP) = settings: GST-tagged PHRF1 (RP)
Method in brief: as §1

KDM5A (1) = settings: GST-tagged KDM5A (1)
Method in brief: as §1

ING2 = settings: GST-tagged ING2
Method in brief: as §1

[1] = sheet "Array Heatmap", arrays performed twice, total replicate number n = 4
[2] = sheet Array Heatmap, each array performed twice, total n = 4

H3K4A + K9me2 (1-15): H3 1-15 (ARTAQTAR[Lys(Me2)]STGGKA; UniProt P68431 2-16, looked up, variant K4A)
Array Heatmap signal, CHD4 (PPCC) (CHD4 (PPCC); sheet "Array Heatmap", GST-tagged CHD4 (PPCC), arrays performed twice, total replicate number n = 4): 0.6182 | Array Heatmap signal, RAG2 (RAG2; [1]): 0.4111 | Array Heatmap signal, CHD5 (PPCC) (CHD5 (PPCC); sheet "Array Heatmap", GST-tagged CHD5 (PPCC), arrays performed twice, total replicate number n = 4): 0.6167 | Array Heatmap signal, PHF8 (PHF8; [1]): 0.5196 | Array Heatmap signal, CHD5 (PCC) (CHD5 (PCC); sheet "Array Heatmap", GST-tagged CHD5 (PCC), arrays performed twice, total replicate number n = 4): 0.7736 | Array Heatmap signal, MLL5 (MLL5; [1]): 0.7648 | Array Heatmap signal, BPTF (PB) (BPTF (PB); sheet "Array Heatmap", GST-tagged BPTF (PB), arrays performed twice, total replicate number n = 4): 0.4333 | Array Heatmap signal, PHF21A (PHF21A; [1]): 0.468 | Array Heatmap signal, BAZ2B (BAZ2B; [1]): 0.512 | Array Heatmap signal, SP140L (SP140L; [1]): 0.3864 | Array Heatmap signal, ING5 (ING5; [1]): 0.4518 | Array Heatmap signal, KDM5B (3) (KDM5B (3); [1]): 0.59 | Array Heatmap signal, KDM4C (TTP) (KDM4C (TTP); sheet "Array Heatmap", GST-tagged KDM4C (TTP), arrays performed twice, total replicate number n = 4): 0.6461 | Array Heatmap signal, KDM5B (1) (KDM5B (1); [1]): 0.7016 | Array Heatmap signal, MORC3 (CW) (MORC3 (CW); sheet "Array Heatmap", GST-tagged MORC3 (CW), arrays performed twice, total replicate number n = 4): 0.5677 | Array Heatmap signal, TRIM66 (PB) (TRIM66 (PB); sheet "Array Heatmap", GST-tagged TRIM66 (PB), arrays performed twice, total replicate number n = 4): 0.6262 | Array Heatmap signal, TAF3 (TAF3; [1]): 0.4571 | Array Heatmap signal, PHF2 (PHF2; [1]): 0.6167 | Array Heatmap signal, DPF2 (PPC2W2) (DPF2 (PPC2W2); sheet "Array Heatmap", GST-tagged DPF2 (PPC2W2), arrays performed twice, total replicate number n = 4): 0.7164 | Array Heatmap signal, PHF23 (PHF23; [1]): 0.6377 | Array Heatmap signal, AIRE (PP) (AIRE (PP); [1]): 0.5312 | Array Heatmap signal, ING3 (ING3; [1]): 0.5843 | Array Heatmap signal, KDM5A (3) (KDM5A (3); [1]): 0.6587 | Array Heatmap signal, ING1 (ING1; [1]): 0.7124 | Array Heatmap signal, ING4 (ING4; [1]): 0.5574 | Array Heatmap signal, DIDO1 (DIDO1; [1]): 0.8787 | Array Heatmap signal, PHF13 (PHF13; [1]): 0.6939 | Array Heatmap signal, KDM7A (KDM7A; [1]): 0.6423 | Array Heatmap signal, PHRF1 (RP) (PHRF1 (RP); [1]): 0.5557 | Array Heatmap signal, KDM5A (1) (KDM5A (1); [1]): 0.5206 | Array Heatmap signal, ING2 (ING2; [1]): 0.695

H3K4ac + K9ac + K14ac + K18ac: H3 1-20
Array Heatmap signal (histone peptide microarray) (CHD4 (PPCC); GST-tagged CHD4 (PPCC = Dual PHD + Dual Chromodomain), sheet Array Heatmap, each array performed twice, total n = 4): 0.5829 | Array Heatmap signal (histone peptide microarray) (RAG2; [2]): 0.2412 | Array Heatmap signal (histone peptide microarray) (CHD5 (PPCC); GST-tagged CHD5 (PPCC = Dual PHD + Dual Chromodomain), sheet Array Heatmap, each array performed twice, total n = 4): 0.5084 | Array Heatmap signal (histone peptide microarray) (PHF8; [2]): 0.3207 | Array Heatmap signal (histone peptide microarray) (CHD5 (PCC); GST-tagged CHD5 (PCC = PHD + Dual Chromodomain), sheet Array Heatmap, each array performed twice, total n = 4): 0.7123 | Array Heatmap signal (histone peptide microarray) (MLL5; [2]): 0.5536 | Array Heatmap signal (histone peptide microarray) (BPTF (PB); GST-tagged BPTF (PB = PHD + Bromodomain), sheet Array Heatmap, each array performed twice, total n = 4): 0.3593 | Array Heatmap signal (histone peptide microarray) (PHF21A; [2]): 0.4272 | Array Heatmap signal (histone peptide microarray) (BAZ2B; [2]): 0.563 | Array Heatmap signal (histone peptide microarray) (SP140L; [2]): 0.3096 | Array Heatmap signal (histone peptide microarray) (ING5; [2]): 0.3295 | Array Heatmap signal (histone peptide microarray) (KDM5B (3); [2]): 0.4694 | Array Heatmap signal (histone peptide microarray) (KDM4C (TTP); GST-tagged KDM4C (TTP = Tandem Tudor domain + PHD), sheet Array Heatmap, each array performed twice, total n = 4): 0.4292 | Array Heatmap signal (histone peptide microarray) (KDM5B (1); [2]): 0.573 | Array Heatmap signal (histone peptide microarray) (MORC3 (CW); GST-tagged MORC3 (CW = CW-type Zn-finger), sheet Array Heatmap, each array performed twice, total n = 4): 0.3581 | Array Heatmap signal (histone peptide microarray) (TRIM66 (PB); GST-tagged TRIM66 (PB = PHD + Bromodomain), sheet Array Heatmap, each array performed twice, total n = 4): 0.6561 | Array Heatmap signal (histone peptide microarray) (TAF3; [2]): 0.2581 | Array Heatmap signal (histone peptide microarray) (PHF2; [2]): 0.6121 | Array Heatmap signal (histone peptide microarray) (DPF2 (PPC2W2); GST-tagged DPF2 (PPC2W2 = Dual PHD + C2W2-type Zn-finger), sheet Array Heatmap, each array performed twice, total n = 4): 0.6596 | Array Heatmap signal (histone peptide microarray) (PHF23; [2]): 0.5552 | Array Heatmap signal (histone peptide microarray) (AIRE (PP); [2]): 0.3782 | Array Heatmap signal (histone peptide microarray) (ING3; [2]): 0.4699 | Array Heatmap signal (histone peptide microarray) (KDM5A (3); [2]): 0.4281 | Array Heatmap signal (histone peptide microarray) (ING1; [2]): 0.5598 | Array Heatmap signal (histone peptide microarray) (ING4; [2]): 0.4318 | Array Heatmap signal (histone peptide microarray) (DIDO1; [2]): 0.7084 | Array Heatmap signal (histone peptide microarray) (PHF13; [2]): 0.5706 | Array Heatmap signal (histone peptide microarray) (KDM7A; [2]): 0.3021 | Array Heatmap signal (histone peptide microarray) (PHRF1 (RP); [2]): 0.4629 | Array Heatmap signal (histone peptide microarray) (KDM5A (1); [2]): 0.4231 | Array Heatmap signal (histone peptide microarray) (ING2; [2]): 0.6105
